PMC6925188, “PBRM1 acts as a p53 lysine-acetylation reader to suppress renal tumor growth” (Nature Communications, 2019)

What was measured:
PBRM1 binding to CDKN1A = experiment: ChIP-qPCR, Flag antibody (Flag-PBRM1), CDKN1A gene, RCC4 cells; format: cell-based; set-up: unit not given here; conditions: 100 μM, 24 h
Experimental: (§1) Lysates were analyzed by immunoblots. c RCC4 cells with or without p53 KO were transfected with vector or Flag-PBRM1 at the indicated amounts. […] Cells were harvested for RT-qPCR (g) or ChIP followed by qPCR (h). […] Representative data is shown in i. Quantification of cell cycle phase is shown in j. Source data are provided as a Source Data file.
ChIP assays were performed with the Pierce Agarose ChIP Kit (26156, Thermo Scientific) according to the manufacturer’s instructions with minor revisions. In brief, samples were crosslinked with 1% paraformaldehyde and halted by 125 mM glycine. After washing twice with ice-cold PBS, cells were harvested and suspended in Lysis Buffer 1 and incubated on ice for 10 min. 1 × 10^7 nuclei were resuspended in 500 μl MNase Digestion Buffer containing 6.25 U Micrococcal Nuclease and incubated at 37 °C for 15 min. After the reaction was stopped, nuclei were pelleted by centrifugation and resuspended in 250 μl Lysis Buffer 2. Nuclei were sonicated at 10% amplitude for 10 s twice and incubated on ice for 30 min. After centrifugation, 50 μl supernatant containing the digested chromatin from 2 × 10^6 nuclei was diluted in 1× IP Dilution Buffer and incubated with antibodies (normal rabbit IgG for control, 1 μg FL393 + 1 μg DO-1 for p53 or 2 μg Flag M2 for Flag-PBRM1) overnight at 4 °C. […] of ChIP Grade Protein A/G Plus Agarose was added and incubated for 1 h at 4 °C. The agarose resins were washed once with IP Wash Buffer 1, twice with IP Wash Buffer 2 and once with IP Wash Buffer 3. 150 μl 1× IP Elution Buffer was added to the washed resin and incubated at 65 °C for 30 min with shaking. The eluate was treated with Proteinase K and DNA was extracted with columns provided in the kit.

Ren-01 PBRM1 KO cells = experiment: Immunoblot of p53 targets, Ren-01 PBRM1 KO cells; format: cell-based; conditions: 50 μM etoposide
Experimental: (§2) The band intensity of indicated protein was measured with Bio-rad Image Lab 4.1, and the relative ratios were calculated over the signal intensity of Vinculin in the corresponding lanes. c–e. Nude mice xenograft analyses were performed with Ren-01 PBRM1 KO cells expressing GFP (left flank) or PBRM1 (right flank). Representative photographs of a mouse (c, top) and tumors (c, bottom). Tumors were excised and weighed, and data are presented as mean ± SEM (d). p-values were calculated using the paired two-tailed Student’s t-test. Tumors were stained for PBRM1 and p21 expression via IHC (e). Scale bar: 200 μm. f–h Nude mice xenograft analyses were performed with Ren-01 PBRM1 KO cells expressing wild-type PBRM1 (left flank) or the BD4* mutant PBRM1 (right flank). Tumors were excised and weighed, and data are presented as mean ± SEM (g). p-values were calculated using the paired two-tailed Student’s t-test. Representative photographs of a mouse (f, top) and tumors (f, bottom). Tumors were stained for PBRM1 and p21 expression via IHC analysis (h). Scale bar: 200 μm. Source data are provided as a Source Data file.
After washing with ice-cold PBS, cells were scraped on ice and centrifuged at 10,000 × g for 1 min at 4 °C. […]

SLR24 cells = experiment: Immunoblot of p53 targets, PBRM1-null SLR24 cells; format: cell-based; conditions: 50 μM etoposide
Experimental: as §2
(§3) After washing with ice-cold PBS, cells were scraped on ice and centrifuged at 10,000 × g for 1 min at 4 °C. For immunoblot analysis, cell pellets were lysed in 1% SDS containing a protease inhibitor cocktail followed by sonication with a FB50 sonic dismembrator (Fisher Scientific) at 20% amplitude for 15 s twice. After centrifuging for 10 min at 14,000 × g, the supernatants were combined with 5X SDS loading buffer (5% mercaptoethanol, 0.05% Bromophenol blue, 30% glycerol, 10% SDS, 250 mM Tris-HCl (pH 6.8)), boiled for 5 min and used in SDS-PAGE. After standard western blot procedures, the blots were developed using the ImageQuant LAS 4000 (GE healthcare Life Sciences) or ChemiDoc MP Imaging System (Bio-rad) with HyGLO™ Chemiluminescent HRP Detection Reagent (E2500, Denville Scientific) or Immobilon™ Western Chemiluminescent HRP Substrate (WBKLS0500, Millipore).

RCC4 cells = conditions: 100 μM etoposide
Experimental: as §1
as §3, with “Millipore). […]” for “Millipore).”
the indicated times. Lysates were analyzed via immunoblots. b. […]
were analyzed by immunoblots. c. […]
Lysates were analyzed via immunoblots. e. […]
Lysates were analyzed via immunoblots. f, g, h. […]

With `COc1cc([C@@H]2c3cc4c(cc3[C@@H](O[C@@H]3O[C@@H]5CO[C@@H](C)O[C@H]5[C@H](O)[C@H]3O)[C@H]3COC(=O)[C@H]23)OCO4)cc(OC)c1O` [Etoposide] the “Flag ChIP at CDKN1A-RE1” value (PBRM1 binding to CDKN1A; RCC4-GFP, assay 1) was 0.0131, the “Flag ChIP at CDKN1A-TSS” value (PBRM1 binding to CDKN1A; RCC4-GFP, assay 1) was 0.013 and the “Flag ChIP at CDKN1A-intron” value (PBRM1 binding to CDKN1A; RCC4-GFP, assay 1) was 0.0279. The “Flag ChIP at CDKN1A-RE1” value (PBRM1 binding to CDKN1A; RCC4-GFP, assay 2) was 0.0381, the “Flag ChIP at CDKN1A-TSS” value (PBRM1 binding to CDKN1A; RCC4-GFP, assay 2) was 0.0086 and the “Flag ChIP at CDKN1A-intron” value (PBRM1 binding to CDKN1A; RCC4-GFP, assay 2) was 0.0296. For the same compound, the “Flag ChIP at CDKN1A-RE1” value (PBRM1 binding to CDKN1A; RCC4-GFP, assay 3) was 0.0109, the “Flag ChIP at CDKN1A-TSS” value (PBRM1 binding to CDKN1A; RCC4-GFP, assay 3) was 0.0269 and the “Flag ChIP at CDKN1A-intron” value (PBRM1 binding to CDKN1A; RCC4-GFP, assay 3) was 0.0971. The “Flag ChIP at CDKN1A-RE1” value (PBRM1 binding to CDKN1A; RCC4-PBRM1-BD4*, assay 1) was 0.1332, the “Flag ChIP at CDKN1A-TSS” value (PBRM1 binding to CDKN1A; RCC4-PBRM1-BD4*, assay 1) was 0.204 and the “Flag ChIP at CDKN1A-intron” value (PBRM1 binding to CDKN1A; RCC4-PBRM1-BD4*, assay 1) was 0.0594. The “Flag ChIP at CDKN1A-RE1” value (PBRM1 binding to CDKN1A; RCC4-PBRM1-BD4*, assay 2) was 0.168, the “Flag ChIP at CDKN1A-TSS” value (PBRM1 binding to CDKN1A; RCC4-PBRM1-BD4*, assay 2) was 0.1814 and the “Flag ChIP at CDKN1A-intron” value (PBRM1 binding to CDKN1A; RCC4-PBRM1-BD4*, assay 2) was 0.0845. The “Flag ChIP at CDKN1A-RE1” value (PBRM1 binding to CDKN1A; RCC4-PBRM1-BD4*, assay 3) was 0.1906, the “Flag ChIP at CDKN1A-TSS” value (PBRM1 binding to CDKN1A; RCC4-PBRM1-BD4*, assay 3) was 0.171 and the “Flag ChIP at CDKN1A-intron” value (PBRM1 binding to CDKN1A; RCC4-PBRM1-BD4*, assay 3) was 0.0675. For the same compound, the “Flag ChIP at CDKN1A-RE1” value (PBRM1 binding to CDKN1A; RCC4-PBRM1, assay 1) was 0.118, the “Flag ChIP at CDKN1A-TSS” value (PBRM1 binding to CDKN1A; RCC4-PBRM1, assay 1) was 0.1053 and the “Flag ChIP at CDKN1A-intron” value (PBRM1 binding to CDKN1A; RCC4-PBRM1, assay 1) was 0.1192. The “Flag ChIP at CDKN1A-RE1” value (PBRM1 binding to CDKN1A; RCC4-PBRM1, assay 2) was 0.114, the “Flag ChIP at CDKN1A-TSS” value (PBRM1 binding to CDKN1A; RCC4-PBRM1, assay 2) was 0.1575 and the “Flag ChIP at CDKN1A-intron” value (PBRM1 binding to CDKN1A; RCC4-PBRM1, assay 2) was 0.074. The “Flag ChIP at CDKN1A-RE1” value (PBRM1 binding to CDKN1A; RCC4-PBRM1, assay 3) was 0.1263, the “Flag ChIP at CDKN1A-TSS” value (PBRM1 binding to CDKN1A; RCC4-PBRM1, assay 3) was 0.1136 and the “Flag ChIP at CDKN1A-intron” value (PBRM1 binding to CDKN1A; RCC4-PBRM1, assay 3) was 0.066. The “expression of p53 downstream targets after DNA damage, wild-type vs BD4* PBRM1” value (Ren-01 PBRM1 KO cells) was “rescued by wild-type but not BD4* mutant PBRM1”, the “p21, PUMA and MDM2 expression after DNA damage, wild-type vs BD4* PBRM1 or GFP” value (SLR24 cells; SLR24) was “significantly induced by wild-type but not BD4* mutant PBRM1 or GFP” and the “p21 or PUMA induction” value (SLR24 cells; SLR24 cells) was “barely”. The “p21 and PUMA induction with PBRM1-BD4*” value (SLR24 cells; SLR24 expressing PBRM1-BD4*) was “failed to induce their expression”, the “p21 and PUMA induction with PBRM1-wt” value (SLR24 cells; SLR24 expressing PBRM1-wt, all time points) was “strongly induced” and the “p21 enhancement by PBRM1 BD4* mutant after p53 activation” value (RCC4 cells) was “failed to enhance p21 expression”.
